# Key:
# in vitro = conditions: human, Caco-2
# Procedure: (§1) Caco-2 cell lines were cultured (ATCC, Manassas, VA, United States) as described previously ([Liu et al., 2014]). Briefly, the cells were cultured at 37°C in 5% CO2 at 90% humidity in DMEM high glucose medium containing 20% fetal bovine serum, 1% nonessential amino acids, 100 U/ml penicillin and 1% streptomycin. For the efflux studies, the cells were seeded onto polyethylene terephthalate Millicell® cell culture inserts (0.4 μm pore size, 6.5 mm diameter, Millipore Corporation, Billerica, MA, United States) at a density of 1.7 × 10^5 cells/ml. The culture medium was refreshed on the day after seeding, after which it was refreshed every other day and on the day before the transport experiment. The cells were cultured for 20–22 days after seeding and then evaluated by measuring the transepithelial electrical resistance (TEER) (Millicell ERS®, Millipore Corporation) before experiments. […] Transepithelial permeability studies for YL-IPA08 (10 μM) were conducted from apical to basolateral side (A-B) and basolateral to apical side (B-A) for 120 min 0.2% BSA was included in the receiver solution to avoid nonspecific binding. At 60, 90, and 120 min, half volume of solution from receiver side was withdrawn, and same volume of HBSS was immediately added. Obtained samples were precipitated by adding 4× volumes of acetonitrile containing IS and centrifuged. The supernatants were stored in −20°C until further analysis by LC-MS/MS.
# (§2) The in vitro t1/2 in liver microsomal incubation was calculated from the semi-log plot of percentage remaining vs. incubation time and intrinsic clearance (Clint, ml/min/mg protein) was calculated as Eq. 1: CLint=0.693/in vitro t1/2×volume of incubation (μl)/amount of microsomal protein in incubation (mg) (1) ([Suzuki et al., 2003]).Apparent permeability was obtained according to the equation Papp = (dQ/dt)/(A × C0), where dQ/dt is the mass transport rate (determined from the slope of the amount transported vs. time plot), A is the surface area of the monolayer, and C0 is the initial concentration of YL-IPA08 in the donor chamber ([Suzuki et al., 2003]). The efflux ratio was calculated for each study using the following equation: […] = Papp(B–A)/Papp(A–B), where Papp(B–A) and Papp(A–B) represent apparent drug permeability in the B to A and A to B direction, respectively. An efflux ratio greater than 2 indicates net efflux.
# Caco-2 cells = test: in vitro
# Procedure: as §1, §2
# [1] = human, microsomes, 0 h, 1 μM, pH 7.4
# TSPO = tested on: TSPO; parameters: method as in Zhang et al. (2017); conditions: crude mitochondrial fraction from rat cerebellum, 10 volumes HS buffer; ref Zhang et al. (2017); cited from earlier work
# [2] = Pharmacokinetics in rats with ABT pretreatment (intestinal and hepatic availability); conditions: rat, plasma; for concentration at 0.033 h / concentration at 0.083 h / concentration at 8 h / concentration at 12 h / concentration at 24 h / concentration at 0.25 h / concentration at 0.5 h / concentration at 1 h / concentration at 2 h / concentration at 4 h / concentration at 6 h: intravenous, Plasma concentration; for concentration at 0.033 h / concentration at 0.083 h / concentration at 8 h / concentration at 12 h / concentration at 24 h / concentration at 0.25 h / concentration at 0.5 h / concentration at 1 h / concentration at 2 h / concentration at 4 h / concentration at 6 h / AUC(0-inf) / MRT last: rats; for MRT last: MRT(0–t)
# [3] = iv, 0.1 mg/kg, p.o. ABT, i.v. YL-IPA08 (0.1 mg/kg)
# [4] = iv, 0.1 mg/kg, with ABT 100 mg/kg p.o., 15 h before dosing
# [5] = iv, 0.5 mg/kg, i.v. ABT, i.v. YL-IPA08 (0.5 mg/kg)
smiles,measurement,setting,value
CCN(Cc1ccccn1)C(=O)Cc1c(-c2ccc(Cl)c(Cl)c2)nc2cc(C)ccn12 [YL-IPA08],"Papp A→B at 120 min, 10 μM",in vitro,3.99 ± 1.46 ×10⁻⁶ cm/s
same,"Papp B→A at 120 min, 10 μM",in vitro,2.63 ± 0.43 ×10⁻⁶ cm/s
same,"efflux ratio at 120 min, 10 μM",in vitro,0.66
same,permeability across Caco-2 cells (in words),Caco-2 cells; Caco-2,high permeability
same,"Concentration, DOB","Caco-2 cells; Caco-2, basolateral donor at time 0",8883 ± 436 nM
same,"Concentration, DOA","Caco-2 cells; human, Caco-2, 0 min, 10 µM",8350 ± 173 nM
same,"Concentration, A-B-B-60 min","Caco-2 cells; human, Caco-2, 60 min, 10 µM",13 ± 4 nM
same,"Concentration, B-A-A-60 min","Caco-2 cells; human, Caco-2, 60 min, 10 µM",28 ± 8 nM
same,"Concentration, A-B-B-90min","Caco-2 cells; human, Caco-2, 90 min, 10 µM",36 ± 25 nM
same,"Concentration, B-A-A-90min","Caco-2 cells; human, Caco-2, 90 min, 10 µM",68 ± 27 nM
same,"Concentration, A-B-A-120 min","Caco-2 cells; human, Caco-2, 120 min, 10 µM",1755 ± 135 nM
same,"Concentration, A-B-B-120 min","Caco-2 cells; human, Caco-2, 120 min, 10 µM",50 ± 17 nM
same,"Concentration, B-A-A-120 min","Caco-2 cells; human, Caco-2, 120 min, 10 µM",105 ± 14 nM
same,"Concentration, B-A-B-120 min","Caco-2 cells; human, Caco-2, 120 min, 10 µM",2598 ± 360 nM
same,P appA-B,"Caco-2 cells; human, Caco-2, 120 min, 10 µM",3.99 × 10^–6 cm/s
same,P appB-A,"Caco-2 cells; human, Caco-2, 120 min, 10 µM",2.63 × 10^–6 cm/s
same,percent of remaining,[1],100.00%
same,IC50,TSPO,0.23 nM
same,concentration at 0.033 h,"[2]; 0.1 mg/kg, p.o. 100 mg/kg ABT, i.v. 0.1 mg/kg YL-IPA08, 0.033 h",465 ± 68.7 ng/mL
same,concentration at 0.083 h,"[2]; 0.1 mg/kg, p.o. 100 mg/kg ABT, i.v. 0.1 mg/kg YL-IPA08, 0.083 h",398 ± 51.3 ng/mL
same,concentration at 8 h,"[2]; 0.1 mg/kg, p.o. 100 mg/kg ABT, i.v. 0.1 mg/kg YL-IPA08, 8 h",8.97 ± 2.63 ng/mL
same,concentration at 12 h,"[2]; 0.1 mg/kg, p.o. 100 mg/kg ABT, i.v. 0.1 mg/kg YL-IPA08, 12 h",4.58 ± 1.17 ng/mL
same,concentration at 24 h,"[2]; 0.1 mg/kg, p.o. 100 mg/kg ABT, i.v. 0.1 mg/kg YL-IPA08, 24 h",0.65 ± 0.29 ng/mL
same,concentration at 0.033 h,"[2]; 0.5 mg/kg, i.v. 50 mg/kg ABT, i.v. 0.5 mg/kg YL-IPA08, 0.033 h",398 ± 77.8 ng/mL
same,concentration at 0.083 h,"[2]; 0.5 mg/kg, i.v. 50 mg/kg ABT, i.v. 0.5 mg/kg YL-IPA08, 0.083 h",285 ± 28.2 ng/mL
same,concentration at 12 h,"[2]; 0.5 mg/kg, i.v. 50 mg/kg ABT, i.v. 0.5 mg/kg YL-IPA08, 12 h",6.73 ± 2.47 ng/mL
same,concentration at 24 h,"[2]; 0.5 mg/kg, i.v. 50 mg/kg ABT, i.v. 0.5 mg/kg YL-IPA08, 24 h",2.01 ± 0.93 ng/mL
same,concentration at 0.25 h,"[2]; i.v. 50 mg/kg ABT, i.v. 0.5 mg/kg YL-IPA08, 0.25 h",208 ± 29.4 ng/mL
same,concentration at 0.5 h,"[2]; i.v. 50 mg/kg ABT, i.v. 0.5 mg/kg YL-IPA08, 0.5 h",156 ± 21.5 ng/mL
same,concentration at 1 h,"[2]; i.v. 50 mg/kg ABT, i.v. 0.5 mg/kg YL-IPA08, 1 h",113 ± 14.7 ng/mL
same,concentration at 2 h,"[2]; i.v. 50 mg/kg ABT, i.v. 0.5 mg/kg YL-IPA08, 2 h",54.8 ± 11.8 ng/mL
same,concentration at 4 h,"[2]; i.v. 50 mg/kg ABT, i.v. 0.5 mg/kg YL-IPA08, 4 h",17.6 ± 5.36 ng/mL
same,concentration at 6 h,"[2]; i.v. 50 mg/kg ABT, i.v. 0.5 mg/kg YL-IPA08, 6 h",10.8 ± 3.07 ng/mL
same,concentration at 8 h,"[2]; i.v. 50 mg/kg ABT, i.v. 0.5 mg/kg YL-IPA08, 8 h",8.91 ± 3.06 ng/mL
same,concentration at 0.25 h,"[2]; p.o. 100 mg/kg ABT, i.v. 0.1 mg/kg YL-IPA08, 0.25 h",266 ± 55.2 ng/mL
same,concentration at 0.5 h,"[2]; p.o. 100 mg/kg ABT, i.v. 0.1 mg/kg YL-IPA08, 0.5 h",245 ± 30.4 ng/mL
same,concentration at 1 h,"[2]; p.o. 100 mg/kg ABT, i.v. 0.1 mg/kg YL-IPA08, 1 h",192 ± 16.5 ng/mL
same,concentration at 2 h,"[2]; p.o. 100 mg/kg ABT, i.v. 0.1 mg/kg YL-IPA08, 2 h",114 ± 13.7 ng/mL
same,concentration at 4 h,"[2]; p.o. 100 mg/kg ABT, i.v. 0.1 mg/kg YL-IPA08, 4 h",38.7 ± 13.7 ng/mL
same,concentration at 6 h,"[2]; p.o. 100 mg/kg ABT, i.v. 0.1 mg/kg YL-IPA08, 6 h",14.5 ± 3.66 ng/mL
same,AUC(0-t),"[2]; iv, 0.1 mg/kg",125 ± 46.9 ng·h/mL
same,AUC(0-inf),[2]; [3],126 ± 46.6 ng·h/mL
same,MRT last,[2]; [3],5.45 ± 0.66 h
same,Vd,[2]; [4],1.54 ± 0.49 L/kg
same,clearance,[2]; [4],15 ± 4.78 mL/min/kg
same,half-life,[2]; [4],1.19 ± 0.12 h
same,AUC(0-t),"[2]; iv, 0.5 mg/kg",472 ± 64.3 ng·h/mL
same,AUC(0-inf),[2]; [5],476 ± 65.8 ng·h/mL
same,MRT last,[2]; [5],3.82 ± 0.32 h
same,Vd,"[2]; iv, 0.5 mg/kg, with ABT 50 mg/kg i.v., 1 h before dosing",2.24 ± 0.28 L/kg
